Reference: patent US11400103B2, “Methods of preventing platelet activation” (Vanderbilt University, priority 2015, dated 2022)
“Also recorded” adds a separate entry of the source.

Assays:
human washed platelets [1] = assay: Dilysyl-MDA crosslinks in arachidonic acid-activated human washed platelets (LC/MS/MS); type: cell-based; conditions: preincubation 40 min (ozagrel 100 μM, aspirin 100 μM, SA or 3-MoSA 1.5 mM), then 5 μM arachidonic acid 2 h
Procedure: (§1) In vitro platelet activation: Blood obtained from healthy volunteers was collected into vacuum tubes containing citrate, from a peripheral vein using a 21-gauge needle, and washed platelets were prepared as previously described (7). The platelets were counted with a Coulter counter and diluted with resuspension buffer to a final concentration of […], and aliquoted in volumes corresponding to 500 μl. The aliquots were preincubated for 40 min at room temperature with vehicle, the thromboxane synthase inhibitor ozagrel (100 μM), aspirin (100 μM) or the MDA scavengers, SA (1.5 mM) or 3-MoSA (1.5 mM). Next, arachidonic acid (5 μM) was added and the platelets were incubated for an additional 2 h at room temperature. The reactions were stopped by adding indomethacin (100 μM) and the aldehyde scavenger pyridoxamine (1 mM) for 30 min at 4° C., to inhibit all residual COX-1 activity and to prevent formation of MDA adducts on proteins during the purification process, respectively. An aliquot (5 μl) of sample was used for protein estimations using a BCA assay.
Analysis of Protease-Derived Lysyl-MDA-Lysyl Crosslinks (Dilysyl-MDA Crosslinks) in Washed Platelets by LC/ESI/MS/MS. Samples (around 3 mg of protein) were digested with proteases as previously described for lysyl-lactam adducts (7). In summary, the samples were subsequently heated at 95° C. and allowed to cool at room temperature, before step digestion with pronase (1 mg) at 37° C. for 24 h. Pronase was inactivated by heating samples at 95° C. for 10 min and then cooled to room temperature. Then, 1 μl of […] aminopeptidase was added for every 1 mg of sample protein and incubated at 37° C. for 24 h. Five nanograms of ^13C6-dilysyl-MDA crosslink standard were added to each platelet sample and dilysyl-MDA crosslinks were purified using Oasis cartridge as described above in the section for the preparation of dilysyl-MDA Crosslink standard. The eluate was dried under nitrogen flow to a volume of 100 μl, diluted up to 1 ml with a 0.1% formic acid aqueous solution, and filtered using a 0.22 µm nylon Spin-x centrifuge tube spun at 6,000 rpm for 5 min. Samples were purified by HPLC through the Thermo Scientific Aquasil C18 column. The fractions containing the radioactivity were pooled, concentrated in Oasis HLB cartridge, and then dried under nitrogen to a final volume of 40 μl.
Pooled HPLC fractions concentrated using Oasis were analyzed by LC/MS/MS using an YMC OD-AQ column. […] The gradient was as follows: 0-5 min 100-0% A, 5-7 min 0% A, 7-9 min 0-100% A, 9-15 min 100% A, with a flow rate of 0.2 ml/min. The mass spectrometer was operated in the positive ion mode and the electrospray needle was maintained at 4000 V. Nitrogen was used for both the sheath and auxiliary gas at pressures of 30 and 5 arbitrary units, respectively. […] These settings were used during all experiments, including the validation procedure.

Human platelets [2] = assay: Inhibition of formation of LG adducts in platelets; type: cell-based; conditions: 1 mM compound, 10 μM dazoxiben 30 min, arachidonic acid 2 h
Procedure: Human platelets were pre-incubated with 10 μM dazoxiben, a thromboxane synthase inhibitor, and 1 mM of the specified compound or vehicle (control) for 30 min. After incubation, […] arachidonic acid was added for 2 h, and then the proteins were precipitated and digested to single amino acids by step-digestion with proteases. The daughter ions at m/z 332.1 and 84.1 for the lactam were monitored. Values are means±SD (n=9)*P<0.001 vs. control, +P<0.001 vs. 100 μM concentration.

[3] = Rate of reactivity of the scavengers with MDA in vitro (HPLC); conditions: for formation of MDA adduct of the scavenger relative to MDA-lysine adduct: 37° C., 4 h, MDA ratio 1:1, 0.1 M phosphate pH 7.4, HPLC; for lysine-MDA adducts formation: Lysine and MDA incubated at 37° C. for 4 h in presence of scavenger
Procedure: Determination of the rate of reactivity of the scavengers with MDA in vitro. N^α-Acetyllysine with or without SA, 3-MoSA or 4-HoBA was incubated at 37° C. in the presence of MDA (ratio 1:1) in 0.1 M phosphate, pH 7.4. After 4 h, 10 μl aliquots were diluted to 200 μl with solvent A and analyzed by HPLC. Solvent A consisted to 20% methanol/0.2% formic acid and solvent B was 99.8% methanol/0.2% formic acid. The gradient was as follows: 0-1 min 100% A, 1-7 min 100-0% A, 7-14 min […]. Phenomenex Kinetex column at a flow rate of 0.2 ml/min and the absorbance at 280 nm were used.

human washed platelets [4] = assay: LC/MS/MS quantification of scavenger-MDA adducts from washed platelets; type: cell-based; conditions: 1.5 mM scavenger 40 min, then 5 μM arachidonic acid 2 h
Procedure: LC/MS/MS quantification of scavengers-MDA adducts from washed platelet. Washed platelets were activated as described above in the section “ex vivo activation”. The scavenger-MDA adducts were extracted three times with 500 μl of ethyl acetate from 50 μl of the reaction mixture, as described above. The extract was dried down, re-suspended in 100 μl of ACN-water (1:1, v/v), vortexed, and filtered through a 0.22-um spin X column. The reactions were analyzed by LC/MS/MS using the column and gradient as described above. The mass spectrometer was operated in the positive ion mode and the spray voltage was maintained at 5000 V. Nitrogen was used for the sheath gas and auxiliary gas at pressures of 30 and 5 arbitrary units, respectively. The optimized skimmer offset was set at 10, capillary temperature was 300° C. and the tube lens voltage for both compounds was set to 49. Selected reaction monitoring of specific transition ions for the precursor ions at m/z 178→106 (SA-MDA adduct) or m/z 208→136 (3-MoSA-MDA adduct) at −15 eV were used.

RAW264.7 cells = assay: LG-lysyl adduct formation on histones in RAW264.7 cells; type: cell-based; conditions: 500 μM scavenger 45 min, 20 μM AA 1 h, COX-2 stimulated cells
Procedure: (A). Scavengers were screened in RAW264.7 cells for the ability to decrease LG adduct formation on histones. Scavengers used were glucosamine (GA), 3-methoxysalicylamine (3-MoSA), pentylpyridoxamine (PPM), and 5-ethylsalicylamine (EtSA). Cells were stimulated to express COX-2, pretreated 45 min. with 500 μM scavenger or vehicle (H2O), and given 20 μM AA for 1 h before lysing and extracting histones. Histone proteins were analyzed by LC/ESI/MS/MS for LG-lysyl lactam adduct, n=2.

COX-1 = assay: T×B2 in washed platelets by GC/MS as a measure of COX activity; type: cell-based, human; conditions: 5 μM arachidonic acid 2 h; for effect on T×B2 levels: scavenger 1.5 mM; for inhibition at 100 µM: Homo sapiens, Platelet, read-out: inhibition of T×B2 levels
Procedure: as §1
(§2) GC/NICI/MS quantification of thromboxane B2. Serum T×B2 (sT×B2) was measured as an indicator of inhibition of platelet COX activity from blood drawn into non-citrated vacuum tubes. Serum from patients was prepared by incubating the blood at 37° C. for 45 min and then centrifuged at 3,200×g for 15 min. Serum was separated and stored at −80° C. until analysis. For ex vivo experiment, 50 μl of washed platelets were used. sT×B2 was assayed by stable isotope dilution gas chromatography/mass spectrometry (GC/MS) with selective ion monitoring as described previously (10).

Human platelets [5] = conditions: previously shown (ref 4); cited from earlier work
platelet COX1 = assay: Serum T×B2 in patients with sickle cell disease (GC/MS); type: in vivo, human
Procedure: as §2

[6] = tested on: platelets of patients with SCD; assay: Platelet dilysyl-MDA crosslinks in patients with sickle cell disease; type: in vivo, human
Source text: Sample collection. Written informed consent was obtained from study participants and human blood was obtained following a protocol approved by the Institutional Review Board of Vanderbilt University. Samples were obtained from three different populations: healthy subjects who had no component of the MetSyn or SCD, patients with MetSyn and patients with SCD. Patients with MetSyn were 35-75 year old and fit the MetSyn criteria in accord with the American Heart Association/National Heart, Lung, and Blood Institute criteria (6). Patients with SCD were 25-50 year old and were homozygous sickle (SS) or compound heterozygote with beta-thalassemia (Sβ-thal) phenotype. […]
In vivo platelet activation: Metabolic Syndrome and Sickle Cell patients. […] Accordingly, the levels of dilysyl-MDA crosslinks in platelets were measured in two conditions in which there is evidence of in vivo platelet activation, metabolic syndrome (MetSyn) (8, 9) and sickle cell disease (SCD) (8, 9), and compared to the levels in platelets from healthy subjects isolated from blood collected in the same conditions. […]
Analysis of Protease-Derived Lysyl-MDA-Lysyl Crosslinks (Dilysyl-MDA Crosslinks) in Washed Platelets by LC/ESI/MS/MS. […] The fractions containing the radioactivity were pooled, concentrated in Oasis HLB cartridge, and then dried under nitrogen to a final volume of 40 μl. […]

CC(=O)O.COc1cccc(CN)c1O [3-MoSA, 3-methoxysalicylamine acetate]
levels of dilysyl-MDA crosslinks after platelet activation (human washed platelets [1]; acetate): decreased levels of dilysysl-MDA crosslinks to baseline levels; also recorded: prevent formation of MDA adducts of platelet proteins
scavenging of LG adducts in the platelet (Human platelets [2]): active
formation of MDA adduct of the scavenger relative to MDA-lysine adduct [3]: 15.1 fold
lysine-MDA adducts formation [3]: inhibited
formation of scavenger-MDA adducts in activated platelets (human washed platelets [4]): concomitant appearance of the equivalent scavenger-MDA adduct
effect on LG adducts of histones (nucleus) (RAW264.7 cells): inactive
effect on T×B2 levels (COX-1): neither SA nor 3-MoSA significantly affected T×B2 levels

NCc1ccc(O)cc1 [4-HoBA, 4-hydroxybenzylamine, reference compound]
formation of MDA adduct of the scavenger relative to MDA-lysine adduct [3]: 0.6 fold

CCc1ccc(O)c(CN)c1 [EtSA, 5-ethylsalicylamine]
levels of dilysyl-MDA crosslinks after platelet activation (human washed platelets [1]): as effective as scavengers as was SA; also recorded: prevent formation of MDA adducts of platelet proteins
effect on LG adducts of histones (nucleus) (RAW264.7 cells): blocks LG-lysyl adduct formation on histones
effect on LG adducts of histones (nucleus) (RAW264.7 cells; listed as 5-ethylsalicylamine): effective scavenger

Cc1ccc(O)c(CN)c1 [MeSA, 5-methylsalicylamine]
levels of dilysyl-MDA crosslinks after platelet activation (human washed platelets [1]): as effective as scavengers as was SA; also recorded: prevent formation of MDA adducts of platelet proteins

CC(=O)O.NCc1ccccc1O [SA, Salicylamine acetate]
levels of dilysyl-MDA crosslinks after platelet activation (human washed platelets [1]; acetate): decreased levels of dilysysl-MDA crosslinks to baseline levels; also recorded: prevent formation of MDA adducts of platelet proteins
formation of levuglandinyl adducts of platelet proteins (Human platelets [5]): prevent formation of levuglandinyl adducts of platelet proteins
formation of MDA adduct of the scavenger relative to MDA-lysine adduct [3]: 9.2 fold
lysine-MDA adducts formation [3]: inhibited
formation of scavenger-MDA adducts in activated platelets (human washed platelets [4]): concomitant appearance of the equivalent scavenger-MDA adduct
effect on T×B2 levels (COX-1): neither SA nor 3-MoSA significantly affected T×B2 levels

CC(=O)Oc1ccccc1C(=O)O [aspirin, acetylsalicylic acid, reference compound]
levels of dilysyl-MDA crosslinks after platelet activation (human washed platelets [1]): reduced levels of the dilysysl-MDA crosslink to baseline levels; also recorded: reduce the dilysyl-MDA crosslinks to the levels in non-activated platelets
inhibition at 100 µM (COX-1): 96%

O=C(c1ccccc1)c1ccc2n1CCC2C(=O)O (stereo not shown) [ketorolac]
levels of serum T×B2 (platelet COX1; SCD patients during ketorolac treatment (from 219.7±183.1 ng/mL)): 68.9 ± 127.7 ng/mL
reduction in serum T×B2 (platelet COX1; SCD patients, therapeutic use): 69%
levels of platelet dilysyl-MDA crosslinks ([6]; SCD patients treated with ketorolac during admission for vaso-occlusive crisis): 3.15±1.18 ng/mg of protein
reduction of platelet dilysyl-MDA crosslinks ([6]; therapeutic use in SCD patients): reduction of dilysyl-MDA crosslinks to the level found in normal platelets

O=C(O)/C=C/c1ccc(Cn2ccnc2)cc1 [ozagrel, reference compound]
levels of dilysyl-MDA crosslinks after platelet activation (human washed platelets [1]): reduced levels of the dilysysl-MDA crosslink to baseline levels; also recorded: reduce the dilysyl-MDA crosslinks to the levels in non-activated platelets
inhibition at 100 µM (COX-1): 96%

pentylpyridoxamine [reference compound]
scavenging of LG adducts in the platelet (Human platelets [2]): effective scavenger
effect on LG adducts of histones (nucleus) (RAW264.7 cells): only partially effective
